# According to PubChem BioAssay AID602296 (Broad Institute, 2012):
# Inconclusive results are not listed. Calls of active or inactive are those of the source.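 How the source made its calls: active means fitted activation curve crossing 40% at a concentration no higher than the sample's top valid tested dose; inconclusive means flat fitted curve at 30% to 70% activation, or poor curve fit; inactive means signal decrease, flat curve within 30%, or the rest.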
# System: NIH3T3-HGL HSF-1 response element luciferase, 48 h
# Test: HSF-1 reporter activators over prolonged exposure, confirmation, cell-based, mouse, luciferase, cherry-pick, dose (AID 602296);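 further: test compounds applied by themselves with no MG132 co-treatment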
row,Compound,AC40
1,Cc1nn(C(CC(=O)O)C(=O)O)c(C)c1Br (stereo unspecified),> 26 µM (inactive)
2,CCOc1ccc2nc(COC(=O)c3cccc([N+](=O)[O-])c3)c(C(C)=O)[n+]([O-])c2c1,> 26 µM (inactive)
3,CCOC(=O)/C=C(\C)Nc1cc(C)nn1-c1ccccc1,17.2 µM
4,CCN(CC)S(=O)(=O)c1ccc(C(=O)NN(C)C2=NS(=O)(=O)c3ccccc32)cc1,> 26 µM (inactive)
5,O=C1C2CC=CCC2C(=O)N1Cc1nnc(-c2ccc(Cl)cc2)o1 (stereo unspecified),6.68 µM
6,COC(=O)c1cnc(N2CCCN(S(=O)(=O)c3ccc(C(F)(F)F)cc3)CC2)nc1C(F)(F)F,> 26 µM (inactive)
7,CN(c1ccccc1)c1nc(N)c([N+](=O)[O-])c(N2CCCCCC2)n1,> 26 µM (inactive)
8,COc1ccc(C(=O)NCC(=O)OCC(=O)c2ccc3c(c2)NC(=O)CO3)cc1,> 26 µM (inactive)
9,O=C(NNc1c(Cl)cccc1Cl)C1CCC1,23.5 µM
10,COc1ccc(S(=O)(=O)N2CCC(C(=O)NCc3cccnc3)CC2)cc1C,> 26 µM (inactive)
11,COc1ccc(CCNc2ncnc3c2c(C)c(C)n3CCO)cc1OC,> 26 µM (inactive)
12,Cc1cccc(N=Nc2c(C)c(C#N)c(O)[nH]c2=O)c1,> 26 µM (inactive)
13,CC1(C)Cc2c(C#N)c(N)n(-c3ccccc3)c(=S)c2CO1,> 26 µM (inactive)
14,C=CCOc1ccc(-c2nc3c(c(=O)[nH]c(=O)n3Cc3ccccc3)n2CCCOC)cc1,> 26 µM (inactive)
15,O=C(O)CC1=C(Nc2ccccc2)C(=O)N(c2ccccc2)C1c1ccc(Cl)cc1 (stereo unspecified),5.67 µM
16,CC(C)(C)c1ccc(COc2ccsc2C(=O)O)cc1,4.42 µM
17,O=C(O)CSc1nc2ccccc2nc1Cc1ccccc1F,9.82 µM
18,COc1cccc(-c2nn(-c3ccccc3)cc2C(=O)n2nnc3ccccc32)c1,> 26 µM (inactive)
19,Cc1ccc(CNC(=O)CSc2ccsc2[N+](=O)[O-])cc1,0.83 µM
20,Cc1ccccc1OCCCC(=O)Nc1ccccc1C(F)(F)F,> 26 µM (inactive)
21,COc1ccc(Cc2nnc(SCC(=O)Nc3ccc(N4CCOCC4)cc3)o2)cc1,> 26 µM (inactive)
22,N#Cc1ccc(Cl)cc1NC(=O)CNCc1cccs1,> 26 µM (inactive)

row,Compound,AC40
1,CCCN(CC(=O)Nc1ccc(Cl)cc1Cl)C(=O)/C=C/c1ccco1,13 µM
2,S=c1[nH]nc(-c2ccccc2)n1/N=C/c1ccc(-c2ccccc2Cl)o1,> 12 µM (inactive)
3,CN(C)CCNC(=O)/C(=C/c1ccc(-c2cccc(Cl)c2)o1)NC(=O)c1ccccc1,> 26 µM (inactive)
4,Cc1ccccc1N1CCN(S(=O)(=O)Cc2ccccc2)CC1,> 26 µM (inactive)
5,NC(=O)c1cc2cc(Br)ccc2oc1=NCc1ccccc1,> 26 µM (inactive)
6,CC1=C(C(=O)N2CCOCC2)C(c2c(C)cc(C)cc2C)NC(=S)N1 (stereo unspecified),> 26 µM (inactive)
7,COc1cc2[nH]c(=S)n(Cc3ccco3)c(=O)c2cc1OC,> 26 µM (inactive)
8,Cc1cc(C)c2cc(C(=O)N(C)C3CCN(C)CC3)[nH]c2c1,> 26 µM (inactive)
9,COc1ccc(N=C2NC(=O)/C(=C\C=C\c3ccco3)S2)cc1,12.1 µM
10,COc1ccc(/C=C\c2nc(=O)c3ccccc3o2)cc1,> 26 µM (inactive)
11,CCOC(=O)C(CCOc1cccc(CC)c1)C(=O)OCC,> 26 µM (inactive)
12,COc1cccc(-c2nnc(SCc3nc4ccccc4[nH]3)n2N)c1,18.6 µM
13,CC(CC#CCN1CCOCC1)OCCC#N (stereo unspecified),> 26 µM (inactive)
14,O=C(NCc1ccc(N2CCCC2=O)cc1)Nc1ccccc1,> 26 µM (inactive)
15,CN1CCC(=NNc2ccc(S(=O)(=O)N3CCOCC3)cc2[N+](=O)[O-])CC1,> 26 µM (inactive)
16,Brc1cnc2nc(SC/C=C/c3ccccc3)[nH]c2c1,20.8 µM
17,O[C@@H]1C2CCCC1[C@]1(O)CCCCC1C2 (stereo partly specified),> 26 µM (inactive)
18,CC(OC(=O)/C=C/c1ccc2ccccc2n1)C(=O)NCc1ccccc1 (stereo unspecified),25.9 µM
19,CCc1nnc(N/N=C/c2ccccc2Cl)n1N,21.9 µM
20,COC(=O)Cn1c(=O)c2c(nc3n2CC(C)CN3CCc2ccccc2)n(C)c1=O (stereo unspecified),> 26 µM (inactive)
21,COc1ccc2c(c1OC)C(=O)OC2Nc1nc(-c2ccccc2)cs1 (stereo unspecified),> 26 µM (inactive)
22,CCc1nc2c(sc3nc4c(cc32)COC(C)(C)C4)c(=O)n1Cc1ccco1,> 26 µM (inactive)

row,Compound,AC40
1,COCCCNC(=O)CCn1c(=O)c2ccccc2n(CC(=O)Nc2cc(Cl)ccc2C)c1=O,> 26 µM (inactive)
2,c1ccc2c(Nc3nnc(-c4ccncc4)s3)cccc2c1,1.24 µM
3,C/C(=C\C(=O)Nc1cscc1C)C(=O)O,> 26 µM (inactive)
4,Cc1ccc(-c2nn(-c3cc(Cl)ccc3[N+](=O)[O-])c(=O)c3ccccc23)cc1,> 26 µM (inactive)
5,CC(=O)N1N=C(c2ccccc2)CC1c1ccccc1[N+](=O)[O-] (stereo unspecified),16 µM
6,CN(Cc1nnc(-c2ccc(F)cc2)o1)c1ccccc1,9.33 µM
7,CCOC(=O)CN1C=C(c2ccc3ccccc3n2)C(C[N+](=O)[O-])c2ccccc21 (stereo unspecified),3.31 µM
8,Cn1ncc(Br)c1C(=O)N1CCOCC1,> 26 µM (inactive)
9,CCOC(=O)CSc1cc(-c2ccccc2)nc2ncnn12,> 26 µM (inactive)
10,COc1c(Br)cc(Br)cc1C(=O)O,> 26 µM (inactive)
11,Cc1ccc2cccc(NC(=O)C(F)(F)F)c2n1,> 26 µM (inactive)
12,Cc1noc2ncnc(Sc3ccc(Br)cc3)c12,> 26 µM (inactive)
13,COC(=O)c1nnn(CC(=O)NC(=O)Nc2ccc(F)cc2)c1C(=O)OC,> 26 µM (inactive)
14,OCC1(CCCc2ccccc2)CCN(C2CCSCC2)CC1,> 26 µM (inactive)
15,CCC(C)c1ccccc1NC(=O)c1cc(C)no1 (stereo unspecified),> 26 µM (inactive)
16,COC(=O)[C@@H](Cc1c[nH]c2ccccc12)NC(=O)c1ccc2c(c1)OCO2,3.28 µM
17,Cn1c(CN2CCN(C(=O)c3ccc(F)cc3)CC2)nc2cc([N+](=O)[O-])ccc21,> 26 µM (inactive)
18,COc1ccc(C)cc1-n1c(=O)c2ccccc2c2ccccc2c1=O,> 26 µM (inactive)
19,Cc1[nH]n(-c2ccccc2)c(=O)c1C=NCCc1ccccc1,9.52 µM
20,CC(C)n1cc(/C=N/NC(=O)COc2cccc3cccnc23)c2ccccc21,> 26 µM (inactive)
21,Cc1nc2ncnn2c(C)c1CCC(=O)NCc1ccco1,> 26 µM (inactive)
22,CCc1ccc(CN2C(=O)c3ccccc3C2C(=O)NCC2CCCO2)cc1 (stereo unspecified),> 26 µM (inactive)

row,Compound,AC40
1,COc1cc(C2Nc3ccc4ncccc4c3C3=C2C(=O)CCC3)cc(OC)c1OC (stereo unspecified),5.44 µM
2,COc1ccc(NS(=O)(=O)c2cc(NC(=O)c3cnccn3)ccc2N2CCCC2)cc1,> 26 µM (inactive)
3,COc1cc(OC)c(OC)cc1CN(C)CCc1ccccn1,25.8 µM
4,Cc1ccc(/C=C2/NC(=O)N(Cc3ccc(Br)cc3)C2=O)o1,> 26 µM (inactive)
5,O=C(Nc1ccc2c(c1)C(=O)OC2)c1ccc(Cl)cc1,12.2 µM
6,Cc1cccc(OCC(=O)Nc2cc(C)ccc2O)c1,> 26 µM (inactive)
7,Cc1ccc(NC(=O)N2CCCC2C(=O)Nc2c(C)cc(C)cc2C)cc1 (stereo unspecified),> 26 µM (inactive)
8,Cc1cc(C)n(CC(O)COc2ccc(Cl)cc2Cl)n1 (stereo unspecified),5.12 µM
9,C#CC[N+]1(CC#Cc2ccccc2)CCCCC1,> 26 µM (inactive)
10,O=C(/C=C/Sc1ccccc1)c1ccc(Cl)cc1,4.33 µM
11,Cc1ccc(CNc2c(C=O)c(=O)[nH]c3ccccc23)cc1,> 26 µM (inactive)
12,Cc1cc2oc3c(c(=O)c2cc1C)C(c1ccc(C(C)C)cc1)N(CCCN1CCOCC1)C3=O (stereo unspecified),> 26 µM (inactive)
13,COc1cc(/C=N/NC(=S)NC2CC3C=CC2C3)cc(OC)c1OC (stereo unspecified),> 26 µM (inactive)
14,CCCn1c(SCC(=O)c2cc(OC)ccc2OC)nnc1C(C)C,> 26 µM (inactive)
15,C=CCn1c(O)c(C(CC)=Nc2ccc3c(c2)CCC3)c(=O)[nH]c1=O,> 12 µM (inactive)
16,CC1CC(C)(C)N(C(=O)NC2CCCCC2)c2ccccc21 (stereo unspecified),12.9 µM
17,COCc1cc(=O)[nH]c(SCCS(=O)(=O)c2ccc(Cl)cc2Cl)n1,> 12 µM (inactive)
18,O=C1NC(=O)[C@]2(Cc3ccccc3N3CCN(c4ccccc4)CC32)C(=O)N1Cc1ccccc1 (stereo partly specified),2.51 µM
19,Clc1ccc(SCc2csc(N3CCOCC3)n2)cc1,> 26 µM (inactive)
20,O=C(CC(c1ccco1)S(=O)(=O)c1ccccc1)c1ccc(F)cc1 (stereo unspecified),> 26 µM (inactive)
21,CCOC(=O)N1CCC(NS(=O)(=O)c2ccc3c(c2)C(C)(C)C(=O)N3C)CC1,> 26 µM (inactive)
22,CCOC(=O)c1c(-c2ccc(C)cc2)cn2ccccc12,> 26 µM (inactive)

row,Compound,AC40
1,Cn1cc(C=O)c(-c2ccc3c(c2)OCCCO3)n1,3.77 µM
2,Cc1[nH]c2ccccc2c1/C=C(\C#N)C(=O)NCC1CCCO1 (stereo unspecified),9.18 µM
3,CC(C)(C)C(=O)NCC12C=CC(O1)C1C(=O)N(c3ccccc3)C(=O)C12 (stereo unspecified),> 26 µM (inactive)
4,O=c1[nH][nH]c(-c2ccccc2O)c1C(C[N+](=O)[O-])c1ccccc1 (stereo unspecified),16.9 µM
5,Nc1nnc(SCc2c(F)cccc2Cl)s1,14.4 µM
6,O=C(O)C(Cc1ccccc1)N1C(=O)c2c(Cl)c(Cl)c(Cl)c(Cl)c2C1=O (stereo unspecified),> 12 µM (inactive)
7,Cc1ccc(C(=O)NC(=C(Cl)Cl)S(=O)(=O)c2ccc(Cl)cc2)cc1,8.29 µM
8,O=[N+]([O-])c1ccc(S(=O)(=O)N2CCSC2c2ccco2)cc1 (stereo unspecified),> 26 µM (inactive)
9,CN(NC1OC(=O)c2ccccc21)c1ncc(Cl)cc1C(F)(F)F (stereo unspecified),> 26 µM (inactive)
10,O=C(CN1c2ccccc2S(=O)(=O)c2ccccc21)NCc1ccc(F)cc1,> 26 µM (inactive)
11,Cc1onc(-c2ccccc2)c1C(=O)OCc1nnc(-c2ccccc2)o1,> 26 µM (inactive)
12,CCN(CCNC(=O)CN1CCN(Cc2ccc(Cl)cc2)C1=O)c1ccccc1,20.9 µM
13,Cc1ccc(-c2c3c(=O)n(C)c(=O)n(C)c3cn2-n2cnnc2)cc1,15.1 µM
14,CCOC(=O)Nc1ccc(C(=O)Oc2ccccc2)c(O)c1,14.2 µM
15,Cc1cc(C(=O)N2CCN(c3ccccn3)CC2)c(C)o1,> 26 µM (inactive)
16,CCN1C(=O)CC(N2CCN(c3ccc(C(=O)c4ccccc4)cc3)CC2)C1=O (stereo unspecified),3.85 µM
17,COc1ccc(/C=C(\C#N)C(=O)Nc2cccc(C)n2)cc1,> 26 µM (inactive)
18,CN(C)C(CNC(=O)CCC(=O)c1ccc(Br)cc1)c1ccccc1 (stereo unspecified),> 26 µM (inactive)
